Results: patent US12559529B2, “NPY2 receptor agonists” (Boehringer Ingelheim International GmbH, priority 2019, dated 2026)

What was measured:
normal NMRI mice = assay: Effect on acute food intake in normal NMRI mice; type: in vivo; conditions: male NMRI mice, 10 nmol/kg subcutaneously once
Outline: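 A single 10 nmol/kg s.c. peptide dose was given 1 h before lights-off to male NMRI mice fasted from 6 h before the night phase (n=7-8). Intake was recorded continuously by microchip-identified HM-2 feeding channels. Values are normalized to vehicle controls (50 mM phosphate buffer pH7 with 5% Mannitol).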

[1] = target: T1, Human Neuropeptide Y2 Receptor (Homo sapiens, UniProt P49146); assay: Radioligand binding competition assay (RLB); conditions: Table 3; human 125I-PYY (1-36) 0.02 nM, Y2 receptor membranes; read-out: Ki
T1 construct: purchased CHEMICON HTS066M
T1 sequence (P49146 1-381): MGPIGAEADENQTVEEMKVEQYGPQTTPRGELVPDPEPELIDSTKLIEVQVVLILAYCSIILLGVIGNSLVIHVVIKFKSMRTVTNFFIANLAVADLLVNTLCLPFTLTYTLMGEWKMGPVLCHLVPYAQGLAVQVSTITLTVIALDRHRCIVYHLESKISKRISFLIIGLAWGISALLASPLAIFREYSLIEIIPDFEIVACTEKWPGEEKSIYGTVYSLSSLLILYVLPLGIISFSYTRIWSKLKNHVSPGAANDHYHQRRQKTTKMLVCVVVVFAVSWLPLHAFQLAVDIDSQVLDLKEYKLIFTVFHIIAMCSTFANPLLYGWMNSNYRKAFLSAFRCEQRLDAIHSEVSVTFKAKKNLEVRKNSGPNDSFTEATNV
Outline: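 Membranes from cells expressing human Y2 receptor (0.5 μg protein/well) were incubated with radioligand and serially diluted peptides in 50 mM HEPES, 5 mM MgCl2, 1 mM CaCl2, 0.2% ovalbumin, pH 7.4, for 2 h at room temperature with shaking. Bound radioactivity was collected by filtration and counted; IC50 from sigmoidal nonlinear regression.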

Row | Ki [1] [nM] | SMILES | Acute Food Intake 24 h [% vehicle] (normal NMRI mice)
1 | 0.99 | CC(C)CC(=O)N[C@@H](C)C(=O)N1CCC[C@H]1C(=O)N[C@@H](CCC(=O)O)C(=O)N[C@@H](CCCCNC(=O)COCCOCCNC(=O)COCCOCCNC(=O)CC[C@H](NC(=O)CCCCCCCCCCCCCCCCC(=O)O)C(=O)O)C(=O)N1CCC[C@H]1C(=O)N[C@@H](CCC(=O)O)C(=O)N[C@@H](CCC(=O)O)C(=O)N[C@@H](CC(=O)O)C(=O)N[C@@H](C)C(=O)N[C@@H](CO)C(=O)N1CCC[C@H]1C(=O)N[C@@H](CCC(=O)O)C(=O)N[C@@H](CCC(=O)O)C(=O)N[C@@H](CC(C)C)C(=O)N[C@@H](CCC(N)=O)C(=O)N[C@@H](CCCNC(=N)N)C(=O)N[C@@H](Cc1ccc(O)cc1)C(=O)N[C@@H](Cc1ccc(O)cc1)C(=O)N[C@H](C(=O)N[C@@H](CCC(=O)O)C(=O)N[C@@H](CC(C)C)C(=O)N[C@@H](CCCNC(=N)N)C(=O)N[C@@H](Cc1c[nH]cn1)C(=O)N[C@@H](Cc1ccc(O)cc1)C(=O)N[C@@H](Cc1ccc(O)cc1)C(=O)N[C@@H](CC(N)=O)C(=O)N[C@@H](Cc1c[nH]c2ccccc12)C(=O)N[C@@H](CC(C)C)C(=O)N[C@H](C(=O)N[C@@H](CCCNC(=N)N)C(=O)N[C@@H](CCC(N)=O)C(=O)N[C@@H](CCCNC(=N)N)C(=O)N[C@@H](Cc1ccc(O)cc1)C(N)=O)[C@@H](C)O)C(C)C [Compound 108, N{alpha-4}-(3-methylbutanoyl)-N{epsilon-7}-[2-(2-{2-[2-(2-{2-[(4S)-4-carboxy-4-(17-carboxyheptadecanamido)butanamido]ethoxy}ethoxy)acetamido]ethoxy}ethoxy)acetamido]-[4A,7K,9E,18Q,22V,23E,28Y,30W,31L]hPYY (4-36)] | 47
2 | 0.77 | CC[C@H](C)[C@H](NC(=O)[C@H](CCC(=O)O)NC(=O)[C@H](CCC(=O)O)NC(=O)[C@@H]1CCCN1C(=O)[C@H](CCC(=O)O)NC(=O)[C@H](C)NC(=O)[C@H](CC(=O)O)NC(=O)[C@H](CCC(=O)O)NC(=O)[C@H](CCC(=O)O)NC(=O)[C@@H]1CCCN1C(=O)[C@H](CCCCNC(=O)COCCOCCNC(=O)COCCOCCNC(=O)CC[C@H](NC(=O)CCCCCCCCCCCCCCCCC(=O)O)C(=O)O)NC(=O)[C@H](CCC(=O)O)NC(=O)[C@@H]1CCCN1C(=O)[C@H](C)NC(=O)CC(C)C)C(=O)N[C@@H](CCC(N)=O)C(=O)N[C@@H](CCCNC(=N)N)C(=O)N[C@@H](Cc1ccc(O)cc1)C(=O)N[C@@H](Cc1ccc(O)cc1)C(=O)N[C@H](C(=O)N[C@@H](CO)C(=O)N[C@@H](CC(C)C)C(=O)N[C@@H](CCCNC(=N)N)C(=O)N[C@@H](Cc1c[nH]cn1)C(=O)N[C@@H](Cc1ccc(O)cc1)C(=O)N[C@@H](Cc1ccc(O)cc1)C(=O)N[C@@H](CC(N)=O)C(=O)N[C@@H](Cc1c[nH]c2ccccc12)C(=O)N[C@@H](CC(C)C)C(=O)N[C@H](C(=O)N[C@@H](CCCNC(=N)N)C(=O)N[C@@H](CCC(N)=O)C(=O)N[C@@H](CCCNC(=N)N)C(=O)N[C@@H](Cc1ccc(O)cc1)C(N)=O)[C@@H](C)O)C(C)C [Compound 110, N{alpha-4}-(3-methylbutanoyl)-N{epsilon-7}-[2-(2-{2-[2-(2-{2-[(4S)-4-carboxy-4-(17-carboxyheptadecanamido)butanamido]ethoxy}ethoxy)acetamido]ethoxy}ethoxy)acetamido]-[4A,7K,9E,13E,17I,18Q,22V,28Y,30W,31L]hPYY (4-36)] | 67
3 | 1.94 | CC(C)CC(=O)N[C@@H](C)C(=O)N1CCC[C@H]1C(=O)N[C@@H](CCC(=O)O)C(=O)N[C@@H](CCCCNC(=O)COCCOCCNC(=O)COCCOCCNC(=O)CC[C@H](NC(=O)CCCCCCCCCCCCCCCCC(=O)O)C(=O)O)C(=O)N1CCC[C@H]1C(=O)N[C@@H](CCC(=O)O)C(=O)N[C@@H](CCC(=O)O)C(=O)N[C@@H](CCC(=O)O)C(=O)N[C@@H](C)C(=O)N[C@@H](CO)C(=O)N1CCC[C@H]1C(=O)N[C@@H](CCC(=O)O)C(=O)N[C@@H](C)C(=O)N[C@@H](CC(C)C)C(=O)N[C@@H](CCC(N)=O)C(=O)N[C@@H](CCCNC(=N)N)C(=O)N[C@@H](Cc1ccc(O)cc1)C(=O)N[C@@H](Cc1ccc(O)cc1)C(=O)N[C@H](C(=O)N[C@@H](CO)C(=O)N[C@@H](CC(C)C)C(=O)N[C@@H](CCCNC(=N)N)C(=O)N[C@@H](Cc1c[nH]cn1)C(=O)N[C@@H](Cc1ccc(O)cc1)C(=O)N[C@@H](Cc1ccc(O)cc1)C(=O)N[C@@H](CC(N)=O)C(=O)N[C@@H](Cc1c[nH]c2ccccc12)C(=O)N[C@@H](CC(C)C)C(=O)N[C@H](C(=O)N[C@@H](CCCNC(=N)N)C(=O)N[C@@H](CCC(N)=O)C(=O)N[C@@H](CCCNC(=N)N)C(=O)N[C@@H](Cc1ccc(O)cc1)C(N)=O)[C@@H](C)O)C(C)C [Compound 115, N{alpha-4}-(3-methylbutanoyl)-N{epsilon-7}-[2-(2-{2-[2-(2-{2-[(4S)-4-carboxy-4-(17-carboxyheptadecanamido)butanamido]ethoxy}ethoxy)acetamido]ethoxy}ethoxy)acetamido]-[4A,7K,9E,11E,16A,18Q,22V,28Y,30W,31L]hPYY (4-36)] | 49
4 | 0.5 | CC[C@H](C)[C@H](NC(=O)[C@H](CCC(=O)O)NC(=O)[C@H](CCC(=O)O)NC(=O)[C@@H]1CCCN1C(=O)[C@H](C)NC(=O)[C@H](C)NC(=O)[C@H](CC(=O)O)NC(=O)[C@H](CCC(=O)O)NC(=O)[C@H](CCC(=O)O)NC(=O)[C@@H]1CCCN1C(=O)[C@H](CCCCNC(=O)COCCOCCNC(=O)COCCOCCNC(=O)CC[C@H](NC(=O)CCCCCCCCCCCCCCCCC(=O)O)C(=O)O)NC(=O)[C@H](CCC(=O)O)NC(=O)[C@@H]1CCCN1C(=O)[C@H](C)NC(=O)CC(C)C)C(=O)N[C@@H](CCC(N)=O)C(=O)N[C@@H](CCCNC(=N)N)C(=O)N[C@@H](Cc1ccc(O)cc1)C(=O)N[C@@H](Cc1ccc(O)cc1)C(=O)N[C@H](C(=O)N[C@@H](CO)C(=O)N[C@@H](CC(C)C)C(=O)N[C@@H](CCCNC(=N)N)C(=O)N[C@@H](Cc1c[nH]cn1)C(=O)N[C@@H](Cc1ccc(O)cc1)C(=O)N[C@@H](Cc1ccc(O)cc1)C(=O)N[C@@H](CC(N)=O)C(=O)N[C@@H](Cc1c[nH]c2ccccc12)C(=O)N[C@@H](CC(C)C)C(=O)N[C@H](C(=O)N[C@@H](CCCNC(=N)N)C(=O)N[C@@H](CCC(N)=O)C(=O)N[C@@H](CCCNC(=N)N)C(=O)N[C@@H](Cc1ccc(O)cc1)C(N)=O)[C@@H](C)O)C(C)C [Compound 124, N{alpha-4}-(3-methylbutanoyl)-N{epsilon-7}-[2-(2-{2-[2-(2-{2-[(4S)-4-carboxy-4-(17-carboxyheptadecanamido)butanamido]ethoxy}ethoxy)acetamido]ethoxy}ethoxy)acetamido]-[4A,7K,9E,13A,17I,18Q,22V,28Y,30W,31L]hPYY (4-36)] | 58
